The text below walks through data of patent US4602006A, “Ynenolactone protease inhibitors” (Syntex (U.S.A.) Inc., priority 1984, dated 1986).

In this assay the target is T1, Human Leukocyte Elastase (Homo sapiens, UniProt P08246).
T1 construct: fresh human leukocytes were obtained from a healthy donor; from tissue; host or cells: human leukocytes from a healthy donor (homogenized)
T1 sequence (P08246 30-247 limits assumed): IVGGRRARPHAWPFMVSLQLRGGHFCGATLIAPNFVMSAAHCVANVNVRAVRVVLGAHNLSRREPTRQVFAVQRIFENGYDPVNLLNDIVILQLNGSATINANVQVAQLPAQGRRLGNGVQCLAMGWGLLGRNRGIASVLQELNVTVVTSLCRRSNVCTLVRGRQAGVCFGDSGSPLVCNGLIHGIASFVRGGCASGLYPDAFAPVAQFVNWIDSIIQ
Briefly: Inactivation of Human Leukocyte Elastase (fluorogenic substrate assay). Format: biochemical.

In the case of `C#C/C=C1\CC(Cc2ccccc2)C(=O)O1` (stereo not shown) [3-Benzyl-5(E)-(prop-2-ynylidene)tetrahydro-2-furanone], the irreversibility of inactivation entry (0.24 nanomoles HL elastase + 4 microliters 2 mM inhibitor, 25° C., after 17 minutes chromatographed on Sephadex G-50) is “irreversibility of this inactivation was shown”. For the same compound, under “25° C., pH 7.8, substrate MeOSuc-Ala-Ala-Pro-Val-methylcoumarinamide, read-out: maximum inactivation rate”, the kinact came out at 0.09 s⁻¹. Further, the KI (inactivation) (half-maximal inactivation rate, 25° C., pH 7.8, read-out: inhibitor concentration required for half-maximal rate) was determined as 4.1 µM. Also, for the setting “inhibitor added after recording the uninhibited rate”, the “mode of enzyme inactivation” value was “inactivated in a time and concentration dependent manner”.
